The test system of test [1] is JAK2-pSTAT5 (GM-CSF induced pSTAT5). Kind of test: GM-CSF induced pSTAT5 in human PBMC. The test is classed as cell-based. As to conditions: Homo sapiens, PBMC, 20 min, 5 ng/mL GM-CSF. How it is done:
Human PBMC are isolated from buffy coat and are stored frozen for assays as needed. Cells for assay are thawed and resuspended in complete media containing serum, then cells are diluted to 1.67 E6 cells/ml so that 120 ul per well is 200,000 cells. 15 ul of compound or DMSO is added to the well at the desired concentrations and incubated at 1 hr at 37 C. 15 ul of stimulus (final concentration of 1.7 ng/mL IL-12) is added for 30 minutes prior to pSTAT4 and total STAT4 analysis using cell lysates prepared and analyzed by MSD reagents as per manufacturer protocol. The final DMSO concentration of compound in the assay is 0.1%.
Cells are prepared for analysis as in the above procedure and 15 ul of GM-CSF (final concentration 5 ng/mL) is added for 20 minutes prior to pSTAT5 and total STAT5 analysis using cell lysates prepared and analyzed by MSD reagents as per manufacturer protocol. The final DMSO concentration of compound in the assay is 0.1%.

The subject of test [2] is Tyk2-pSTAT4 (IL-12 induced pSTAT4). The test can be described thus: IL-12 induced pSTAT4 in human PBMC. The class given is cell-based. The following applies: Homo sapiens, PBMC, 0.5 h, 1.7 ng/mL IL-12, 30 minutes. The procedure, abridged: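 Thawed human PBMC (200,000 cells/well, serum-containing medium) preincubated with compound 1 hr at 37 C, 0.1% DMSO final. Stimulated with 1.7 ng/mL IL-12 (final) for 30 minutes; pSTAT4 and total STAT4 in lysates measured by MSD immunoassay.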

For test [3], the target named is JAK2 (Homo sapiens (Human), UniProt O60674). Kind of test: JAK2 radioactive kinase assay. The class given is biochemical. As to conditions: ATP 10 μM. The procedure, abridged:
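Radiometric assay in Hepes pH 7.5, MgCl2, EGTA, Brij35, BSA, DTT, 1% DMSO, with 10 μM [33P]ATP, 120 min at room temp; P81 paper capture and counting. […]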

The target of test [4] is TYK2 (Homo sapiens (Human), UniProt P29597). The test can be described thus: Tyk2 radioactive kinase assay. The test is classed as biochemical. The following applies: ATP 10 μM. The procedure, abridged: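 Recombinant human TYK2 (Invitrogen) was mixed with 20 μM peptide substrate in a buffer of 20 mM Hepes pH 7.5, 10 mM MgCl2, 1 mM EGTA, 0.02% Brij35, 0.02 mg/mL BSA, 0.1 mM […], 2 mM DTT and 1% DMSO, and compounds in DMSO were added. Adding ^33P-ATP (10 μM ATP) started the reaction, which ran 120 min at room temperature. Mixtures were then spotted onto P81 ion-exchange paper, washed thoroughly in 0.75% phosphoric acid, and counted for radioactivity.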

Among the data in patent US10781204B2, “TYK2 inhibitors and uses thereof” (Nimbus Lakshmi, Inc., priority 2015, dated 2020) are EC50 and Ki values, retold here.

The structures appear in SMILES notation. Bounds are passed on as bounds.

Broadly, the EC50 is the concentration that produces a half-maximal response. A lower EC50 goes with higher potency in that assay. One may read the Ki as a dissociation constant, usually derived from enzyme kinetics or from competition with a known ligand.

Chain of JAK2 (O60674 whole entry): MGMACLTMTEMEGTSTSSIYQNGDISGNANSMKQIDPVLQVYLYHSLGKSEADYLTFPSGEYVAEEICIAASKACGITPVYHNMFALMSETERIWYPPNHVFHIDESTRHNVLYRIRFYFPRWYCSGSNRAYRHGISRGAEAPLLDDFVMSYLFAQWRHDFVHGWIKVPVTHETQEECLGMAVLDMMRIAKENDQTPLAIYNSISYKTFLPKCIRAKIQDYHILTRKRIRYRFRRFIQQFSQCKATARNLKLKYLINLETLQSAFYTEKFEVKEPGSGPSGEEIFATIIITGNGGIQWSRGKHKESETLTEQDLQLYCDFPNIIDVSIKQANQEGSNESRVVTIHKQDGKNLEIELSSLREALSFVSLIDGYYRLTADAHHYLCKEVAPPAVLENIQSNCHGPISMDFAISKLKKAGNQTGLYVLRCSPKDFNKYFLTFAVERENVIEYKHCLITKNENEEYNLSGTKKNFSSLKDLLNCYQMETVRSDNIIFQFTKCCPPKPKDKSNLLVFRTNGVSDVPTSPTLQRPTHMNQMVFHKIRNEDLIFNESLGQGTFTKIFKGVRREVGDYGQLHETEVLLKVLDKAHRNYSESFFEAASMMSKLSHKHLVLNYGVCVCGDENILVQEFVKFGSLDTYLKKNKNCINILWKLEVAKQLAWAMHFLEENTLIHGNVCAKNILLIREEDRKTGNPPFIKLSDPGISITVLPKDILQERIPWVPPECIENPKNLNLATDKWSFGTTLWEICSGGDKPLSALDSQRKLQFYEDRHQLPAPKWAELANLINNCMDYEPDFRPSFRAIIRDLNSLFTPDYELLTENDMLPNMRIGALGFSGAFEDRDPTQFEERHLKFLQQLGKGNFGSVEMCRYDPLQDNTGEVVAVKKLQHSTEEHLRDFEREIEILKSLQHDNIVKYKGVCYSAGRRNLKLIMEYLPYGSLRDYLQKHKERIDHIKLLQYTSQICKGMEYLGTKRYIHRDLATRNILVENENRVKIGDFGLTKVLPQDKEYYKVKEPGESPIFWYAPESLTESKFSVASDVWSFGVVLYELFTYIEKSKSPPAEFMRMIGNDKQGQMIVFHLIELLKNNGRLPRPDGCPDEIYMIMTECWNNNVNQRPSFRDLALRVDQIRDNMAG
Chain of TYK2 (P29597 whole entry): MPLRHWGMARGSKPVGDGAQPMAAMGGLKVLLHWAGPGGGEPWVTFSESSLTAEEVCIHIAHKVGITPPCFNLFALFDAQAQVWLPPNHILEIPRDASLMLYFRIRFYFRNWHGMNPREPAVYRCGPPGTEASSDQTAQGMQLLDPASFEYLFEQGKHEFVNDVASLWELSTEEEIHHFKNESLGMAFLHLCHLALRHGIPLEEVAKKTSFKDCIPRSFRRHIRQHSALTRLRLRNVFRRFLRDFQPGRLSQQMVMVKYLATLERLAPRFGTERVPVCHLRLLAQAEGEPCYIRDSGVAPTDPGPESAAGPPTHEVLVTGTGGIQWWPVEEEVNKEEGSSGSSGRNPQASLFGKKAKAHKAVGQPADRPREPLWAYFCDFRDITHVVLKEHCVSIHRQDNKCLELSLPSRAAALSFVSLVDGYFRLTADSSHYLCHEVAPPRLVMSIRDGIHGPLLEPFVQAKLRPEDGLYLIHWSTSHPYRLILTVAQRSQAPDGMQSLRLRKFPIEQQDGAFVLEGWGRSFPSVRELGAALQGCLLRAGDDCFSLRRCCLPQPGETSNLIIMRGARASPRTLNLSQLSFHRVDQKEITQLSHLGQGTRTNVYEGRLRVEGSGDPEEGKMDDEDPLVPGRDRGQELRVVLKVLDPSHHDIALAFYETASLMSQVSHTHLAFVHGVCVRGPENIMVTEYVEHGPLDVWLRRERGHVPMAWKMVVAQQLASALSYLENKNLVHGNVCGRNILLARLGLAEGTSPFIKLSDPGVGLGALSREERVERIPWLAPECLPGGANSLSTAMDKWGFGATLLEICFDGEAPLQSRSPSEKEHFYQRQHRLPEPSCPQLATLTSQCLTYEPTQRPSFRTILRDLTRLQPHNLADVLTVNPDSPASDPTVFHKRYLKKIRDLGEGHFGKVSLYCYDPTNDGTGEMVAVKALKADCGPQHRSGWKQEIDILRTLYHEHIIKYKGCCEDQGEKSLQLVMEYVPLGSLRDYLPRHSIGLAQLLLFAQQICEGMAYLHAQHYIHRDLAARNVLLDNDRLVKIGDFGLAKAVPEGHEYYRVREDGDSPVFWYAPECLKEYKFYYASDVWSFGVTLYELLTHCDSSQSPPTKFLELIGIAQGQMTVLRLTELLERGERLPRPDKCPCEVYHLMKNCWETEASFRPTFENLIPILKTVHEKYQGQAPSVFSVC

In the case of `N#Cc1cccc(F)c1-c1cc(-n2ccc(N3CCCC(N)(C(F)(F)F)C3)n2)c2c(n1)CNC2=O` (stereo not drawn) [I-84, 2-(4-(3-(3-amino-3-(trifluoromethyl)piperidin-1-yl)-1H-pyrazol-1-yl)-5-oxo-6,7-dihydro-5H-pyrrolo[3,4-b]pyridin-2-yl)-3-fluorobenzonitrile], the EC50 in test [1] was 100 to 2000 nM; in test [2] it was 30 to 100 nM. Further, the Ki in test [3] is 0.1 to 10 nM; in test [4], 0.009 to 0.1 nM.

Consider `N#Cc1cccc(F)c1-c1cc(-n2ccc(N3CCC[C@](O)(C(F)(F)F)C3)n2)c2c(n1)CNC2=O` [I-88, (R)-3-fluoro-2-(4-(3-(3-hydroxy-3-(trifluoromethyl)piperidin-1-yl)-1H-pyrazol-1-yl)-5-oxo-6,7-dihydro-5H-pyrrolo[3,4-b]pyridin-2-yl)benzonitrile], for which the EC50 in test [1] is greater than 2000 nM; in test [2], 100 to 2000 nM. Besides, the figures for the Ki in test [3] and in test [4] were 10 to 100 nM and 0.009 to 0.1 nM, respectively.

`N#Cc1cccc(F)c1-c1cc(-n2ccc(N3CCC[C@@](O)(C(F)(F)F)C3)n2)c2c(n1)CNC2=O` [I-89, (S)-3-fluoro-2-(4-(3-(3-hydroxy-3-(trifluoromethyl)piperidin-1-yl)-1H-pyrazol-1-yl)-5-oxo-6,7-dihydro-5H-pyrrolo[3,4-b]pyridin-2-yl)benzonitrile]: the EC50 in test [1] was greater than 2000 nM; in test [2], 100 to 2000 nM. The figures for the Ki in test [3] and in test [4] were 10 to 100 nM and 0.1 to 10 nM, respectively.

For `N#Cc1cccc(F)c1-c1cc(-n2ccc(N3CCCC(C(=O)O)C3)n2)c2c(n1)CNC2=O` (stereo not drawn) [I-91, 1-(1-(2-(2-cyano-6-fluorophenyl)-5-oxo-6,7-dihydro-5H-pyrrolo[3,4-b]pyridin-4-yl)-1H-pyrazol-3-yl)piperidine-3-carboxylic acid], the EC50 in test [1] was greater than 2000 nM; in test [2] it was 100 to 2000 nM. The Ki in test [3] lay within 10 to 100 nM; in test [4], 0.1 to 10 nM.

`C[C@@]1(O)CCN(c2ccn(-c3cc(-c4c(F)cccc4C#N)nc4c3C(=O)NC4)n2)C1` [I-92, (R)-3-fluoro-2-(4-(3-(3-hydroxy-3-methylpyrrolidin-1-yl)-1H-pyrazol-1-yl)-5-oxo-6,7-dihydro-5H-pyrrolo[3,4-b]pyridin-2-yl)benzonitrile]: the figures for the EC50 in test [1] and in test [2] were 100 to 2000 nM and 30 to 100 nM, respectively. The results for the Ki in test [3] and in test [4] were 10 to 100 nM and 0.1 to 10 nM, respectively.

Take `N#Cc1cccc(F)c1-c1cc(-n2ccc(N3CCCC(C#N)C3)n2)c2c(n1)CNC2=O` (stereo not drawn) [I-95, 1-(1-(2-(2-cyano-6-fluorophenyl)-5-oxo-6,7-dihydro-5H-pyrrolo[3,4-b]pyridin-4-yl)-1H-pyrazol-3-yl)piperidine-3-carbonitrile]: the EC50 in test [1] was 100 to 2000 nM; in test [2] it was 30 to 100 nM. The Ki in test [3] fell in the range of 10 to 100 nM; in test [4], 0.1 to 10 nM.

Consider `N#Cc1cccc(F)c1-c1cc(-n2ccc(N3CCC[C@@H](CO)C3)n2)c2c(n1)CNC2=O` [I-97, (R)-3-fluoro-2-(4-(3-(3-(hydroxymethyl)piperidin-1-yl)-1H-pyrazol-1-yl)-5-oxo-6,7-dihydro-5H-pyrrolo[3,4-b]pyridin-2-yl)benzonitrile], for which the EC50 in test [1] was 100 to 2000 nM; in test [2] it was 30 to 100 nM. In addition, the Ki in test [3] lay within 10 to 100 nM; in test [4], 0.1 to 10 nM.

For the compound `N#Cc1cccc(F)c1-c1cc(-n2ccc(N3CCC[C@H](CO)C3)n2)c2c(n1)CNC2=O` [I-98, (S)-3-fluoro-2-(4-(3-(3-(hydroxymethyl)piperidin-1-yl)-1H-pyrazol-1-yl)-5-oxo-6,7-dihydro-5H-pyrrolo[3,4-b]pyridin-2-yl)benzonitrile], the EC50 in test [1] was 100 to 2000 nM; in test [2], 30 to 100 nM. For the same compound, the Ki lay in the range of 10 to 100 nM in test [3] and 0.1 to 10 nM in test [4].

As to `N#Cc1cccc(F)c1-c1cc(-n2ccc(N3CCC4(C3)OCCO4)n2)c2c(n1)CNC2=O` [I-100, 2-(4-(3-(1,4-dioxa-7-azaspiro[4.4]nonan-7-yl)-1H-pyrazol-1-yl)-5-oxo-6,7-dihydro-5H-pyrrolo[3,4-b]pyridin-2-yl)-3-fluorobenzonitrile], the EC50 in test [1] was in the range of 100 to 2000 nM; in test [2], 30 to 100 nM. Further, the Ki lay within 0.1 to 10 nM in test [3] and 0.009 to 0.1 nM in test [4].

On to `N#Cc1cccc(F)c1-c1cc(-n2ccc([C@H]3CCCO3)n2)c2c(n1)CNC2=O` [I-103, (R)-3-fluoro-2-(5-oxo-4-(3-(tetrahydrofuran-2-yl)-1H-pyrazol-1-yl)-6,7-dihydro-5H-pyrrolo[3,4-b]pyridin-2-yl)benzonitrile], for which the EC50 in test [1] and in test [2] was 100 to 2000 nM in each case. Moreover, the Ki in test [3] is 10 to 100 nM; in test [4] it was 0.1 to 10 nM.

`N#Cc1cccc(F)c1-c1cc(-n2ccc([C@@H]3CCCO3)n2)c2c(n1)CNC2=O` [I-104, (S)-3-fluoro-2-(5-oxo-4-(3-(tetrahydrofuran-2-yl)-1H-pyrazol-1-yl)-6,7-dihydro-5H-pyrrolo[3,4-b]pyridin-2-yl)benzonitrile]: the EC50 in test [1] and in test [2] was 100 to 2000 nM each time. For the same compound, the Ki fell in the range of 100 to 1000 nM in test [3] and 0.1 to 10 nM in test [4].

On to `C[C@@H]1CC(O)C[C@H](C)N1c1ccn(-c2cc(-c3c(F)cccc3C#N)nc3c2C(=O)NC3)n1` (stereo partly drawn) [I-107, 3-fluoro-2-(4-(3-((2S,6R)-4-hydroxy-2,6-dimethylpiperidin-1-yl)-1H-pyrazol-1-yl)-5-oxo-6,7-dihydro-5H-pyrrolo[3,4-b]pyridin-2-yl)benzonitrile], for which the EC50 in test [1] and in test [2] was 100 to 2000 nM throughout. For the same compound, the Ki in test [3] fell in the range of 100 to 1000 nM; in test [4] it was 10 to 100 nM.

With `[2H]C1([2H])NC(=O)c2c(-n3ccc(N4CCC[C@@](C)(O)C4)n3)cc(-c3c(F)cccc3C#N)nc21` [I-111, (R)-3-fluoro-2-(4-(3-(3-hydroxy-3-methylpiperidin-1-yl)-1H-pyrazol-1-yl)-5-oxo-6,7-dihydro-5H-pyrrolo[3,4-b]pyridin-2-yl-7,7-d2)benzonitrile], the EC50 in test [1] was in the range of 100 to 2000 nM; in test [2], 30 to 100 nM. For the same compound, the Ki in test [3] was 10 to 100 nM; in test [4], 0.1 to 10 nM.

As for `C[C@H]1CC[C@H](O)CN1c1ccn(-c2cc(-c3c(F)cccc3C#N)nc3c2C(=O)NC3)n1` [I-112, 3-fluoro-2-(4-(3-((2S,5S)-5-hydroxy-2-methylpiperidin-1-yl)-1H-pyrazol-1-yl)-5-oxo-6,7-dihydro-5H-pyrrolo[3,4-b]pyridin-2-yl)benzonitrile], the EC50 in test [1] and in test [2] was 100 to 2000 nM throughout. Besides, the results for the Ki in test [3] and in test [4] were 10 to 100 nM and 0.1 to 10 nM, respectively.

For the compound `C[C@H]1CC[C@@H](O)CN1c1ccn(-c2cc(-c3c(F)cccc3C#N)nc3c2C(=O)NC3)n1` [I-113, 3-fluoro-2-(4-(3-((2S,5R)-5-hydroxy-2-methylpiperidin-1-yl)-1H-pyrazol-1-yl)-5-oxo-6,7-dihydro-5H-pyrrolo[3,4-b]pyridin-2-yl)benzonitrile], the concentration for a half-maximal effect (EC50) in test [1] and in test [2] was 100 to 2000 nM in each case. Besides, the results for the Ki in test [3] and in test [4] were 10 to 100 nM and 0.1 to 10 nM, respectively.

Turning to `[2H]C1([2H])NC(=O)c2c(-n3ccc(N4CC[C@@H](O)C4)n3)cc(-c3c(F)cccc3C#N)nc21` [I-114, (R)-3-fluoro-2-(4-(3-(3-hydroxypyrrolidin-1-yl)-1H-pyrazol-1-yl)-5-oxo-6,7-dihydro-5H-pyrrolo[3,4-b]pyridin-2-yl-7,7-d2)benzonitrile], the EC50 in test [1] was in the range of 100 to 2000 nM; in test [2], 30 to 100 nM. The Ki in test [3] and in test [4] was 0.1 to 10 nM in each case.

Regarding `N#Cc1cccc(F)c1-c1cc(-n2ccc(N3CCC[C@@](N)(C(F)(F)F)C3)n2)c2c(n1)CNC2=O` [I-118, (S)-2-(4-(3-(3-amino-3-(trifluoromethyl)piperidin-1-yl)-1H-pyrazol-1-yl)-5-oxo-6,7-dihydro-5H-pyrrolo[3,4-b]pyridin-2-yl)-3-fluorobenzonitrile], the values for the EC50 in test [1] and in test [2] were 100 to 2000 nM and 30 to 100 nM, respectively. In addition, the Ki lay in the range of 0.1 to 10 nM in test [3] and 0.009 to 0.1 nM in test [4].

As for `N#Cc1cccc(F)c1-c1cc(-n2ccc(N3CCC[C@](N)(C(F)(F)F)C3)n2)c2c(n1)CNC2=O` [I-119, (R)-2-(4-(3-(3-amino-3-(trifluoromethyl)piperidin-1-yl)-1H-pyrazol-1-yl)-5-oxo-6,7-dihydro-5H-pyrrolo[3,4-b]pyridin-2-yl)-3-fluorobenzonitrile], the EC50 in test [1] fell in the range of 100 to 2000 nM; in test [2], 30 to 100 nM. The figures for the Ki in test [3] and in test [4] were 0.1 to 10 nM and 0.009 to 0.1 nM, respectively.
